Among the test systems are A549; ACHN; CCRF-CEM; COLO 205; EKVX; HCC 2998; HL-60; HT-29; K562; KM12; LOX IMVI; Malme-3M; NCI-H23; NCI-H460; NCI-H522; SF-268; SK-OV-3; SW-620; UO-31; CAKI-1.
Common to all, as to test: NCI-60 cell line screen, 48 h

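Where inhibition never reached the appropriate level, the endpoint shown equals the highest concentration tested. Otherwise, values were interpolated linearly from a five-concentration, 48-hour dose response in 96-well plates. GI50 marks 50% less growth.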 Activity calls are given as the source filed them. Cut-off read from the data, not from the text of the source: active = GI50 up to about 1.1 µM and inactive = higher. Bounds are passed on as bounds.

As to `COc1ccc2nc(-c3ccc(O)cc3)cc(O)c2c1`, the GI50 in the experiment on A549 is 3.7 µM (inactive); with ACHN, 3.82 µM (inactive); in the experiment on CCRF-CEM, 1.09 µM (active); in the experiment on COLO 205, 1.28 µM (inactive); in the experiment on EKVX it was 7.06 µM (inactive); with HCC 2998 it was 0.9 µM (active). In addition, the GI50 in the experiment with HL-60 is 0.649 µM (active); in the experiment on HT-29, 2.26 µM (inactive); with K562, 0.598 µM (active); with KM12 it was 1.03 µM (active); in the experiment on LOX IMVI, 1.58 µM (inactive); with Malme-3M it was 0.459 µM (active). Also, the GI50 in the experiment with NCI-H23 was 1.16 µM (inactive); in the experiment on NCI-H460 it was 1.95 µM (inactive); with NCI-H522, 0.579 µM (active); in the experiment with SF-268 it was 0.764 µM (active); in the experiment with SK-OV-3 it was 1.06 µM (active); in the experiment on SW-620, 1.07 µM (active). Moreover, the GI50 in the experiment on UO-31 was 3.14 µM (inactive).

For `CCCCCCCCCCCCCCCCNc1cccc2ccccc12`, the GI50 with A549, with ACHN, in the experiment with CCRF-CEM, in the experiment with COLO 205, with EKVX and in the experiment on HCC 2998 was > 100 µM (inactive) throughout. The GI50 with HL-60, with K562, in the experiment on KM12, in the experiment on LOX IMVI, with Malme-3M and in the experiment on NCI-H23 was > 100 µM (inactive) in each case. Besides, the GI50 with NCI-H460, in the experiment on NCI-H522, with SF-268, in the experiment with SK-OV-3, in the experiment with SW-620 and in the experiment with UO-31 was > 100 µM (inactive) in each case.

Take `CCOP(=O)(Nc1ccc(-c2ccccc2)cc1)OCC`: the GI50 in the experiment on A549 is 81.5 µM (inactive); with ACHN, > 100 µM (inactive); with CAKI-1, > 100 µM (inactive); with COLO 205, > 100 µM (inactive); in the experiment on EKVX, 65 µM (inactive); in the experiment on HCC 2998, > 100 µM (inactive). For the same compound, the GI50 in the experiment with HT-29 was 75.7 µM (inactive); in the experiment on K562, 74.1 µM (inactive); with KM12 it was > 100 µM (inactive); in the experiment on Malme-3M, > 100 µM (inactive); with NCI-H23, > 100 µM (inactive); with NCI-H460, > 100 µM (inactive). In addition, the GI50 in the experiment with NCI-H522 is 33.8 µM (inactive); in the experiment with SF-268 it was 74.6 µM (inactive); in the experiment on SK-OV-3 it was > 100 µM (inactive); in the experiment on UO-31 it was 57.9 µM (inactive).

In the case of `NC(=O)N=C(NCc1ccccc1)NCc1ccccc1`, the GI50 in the experiment with A549, in the experiment on ACHN, in the experiment with CAKI-1, in the experiment with COLO 205, in the experiment with EKVX and in the experiment on HCC 2998 was > 100 µM (inactive) in each case. Also, the GI50 with HT-29, with KM12, in the experiment with LOX IMVI, in the experiment with NCI-H23, with NCI-H460 and in the experiment with NCI-H522 was > 100 µM (inactive) in each case. Further, the GI50 in the experiment on SF-268, with SK-OV-3, in the experiment on SW-620 and with UO-31 was > 100 µM (inactive) each time.

`CSc1ccc(/C=C2\CN(C)C/C(=C\c3ccc(SC)cc3)C2=O)cc1`: the GI50 with A549 was > 100 µM (inactive); in the experiment on ACHN, 40.6 µM (inactive); in the experiment with CAKI-1, > 100 µM (inactive); with CCRF-CEM, 23.1 µM (inactive); in the experiment on COLO 205, 21.2 µM (inactive); in the experiment on EKVX, 81.3 µM (inactive). Moreover, the GI50 in the experiment with HCC 2998 is 79.4 µM (inactive); in the experiment on HL-60 it was 21.1 µM (inactive); in the experiment on HT-29, 15.2 µM (inactive); in the experiment with K562 it was 22.2 µM (inactive); in the experiment with KM12, 8.75 µM (inactive); with LOX IMVI, 6.47 µM (inactive). Also, the GI50 in the experiment on Malme-3M is > 100 µM (inactive); in the experiment on NCI-H23, 4.52 µM (inactive); in the experiment on NCI-H460, 29.2 µM (inactive); in the experiment with SF-268 it was 29.2 µM (inactive); in the experiment with SK-OV-3, 30.8 µM (inactive); with SW-620, 23 µM (inactive). Moreover, the GI50 with UO-31 is > 100 µM (inactive).

Turning to `CN(CCN(C)C(=O)CCn1ccc(=O)[nH]c1=O)C(=O)CCn1ccc(=O)[nH]c1=O`, the GI50 in the experiment on A549, in the experiment with ACHN, with CCRF-CEM, in the experiment on COLO 205, in the experiment with EKVX and in the experiment with HCC 2998 was > 100 µM (inactive) in each case. For the same compound, the GI50 with HL-60, with HT-29, in the experiment with K562, in the experiment on KM12, in the experiment with LOX IMVI and in the experiment with Malme-3M was > 100 µM (inactive) each time. Besides, the GI50 in the experiment with NCI-H23, in the experiment on NCI-H460, in the experiment with NCI-H522, in the experiment with SF-268, in the experiment with SW-620 and in the experiment on UO-31 was > 100 µM (inactive) throughout.

Consider `O=S(=O)(CCC[C@H]1[C@@H](CCOCc2ccccc2)C2CCCN1O2)c1ccccc1` (stereo partly drawn), for which the GI50 is > 100 µM (inactive) in the experiment with A549; > 100 µM (inactive) in the experiment on ACHN; > 100 µM (inactive) with CAKI-1; > 100 µM (inactive) with CCRF-CEM; > 100 µM (inactive) with COLO 205; 57.3 µM (inactive) in the experiment with EKVX. The GI50 in the experiment with HCC 2998 was > 100 µM (inactive); with HT-29, > 100 µM (inactive); in the experiment with K562 it was 63.2 µM (inactive); with KM12 it was > 100 µM (inactive); with Malme-3M it was > 100 µM (inactive); in the experiment on NCI-H23, > 100 µM (inactive). The GI50 with NCI-H460, with NCI-H522, with SF-268, in the experiment on SK-OV-3, with SW-620 and in the experiment on UO-31 was > 100 µM (inactive) in each case.

As to `Fc1ccc(/N=C2C=C/C(=N\c3ccc(F)cc3)c3ccccc3\2)cc1`, the GI50 in the experiment with A549 was > 100 µM (inactive); in the experiment with ACHN it was > 100 µM (inactive); in the experiment on CCRF-CEM, > 100 µM (inactive); with COLO 205 it was > 100 µM (inactive); in the experiment on EKVX, 33.9 µM (inactive); in the experiment with HCC 2998, > 100 µM (inactive). The GI50 with HL-60 is > 100 µM (inactive); in the experiment with HT-29 it was > 100 µM (inactive); with K562, > 100 µM (inactive); with LOX IMVI, > 100 µM (inactive); with Malme-3M, > 100 µM (inactive); with NCI-H23, 72.1 µM (inactive). The GI50 in the experiment with NCI-H460 was 93.1 µM (inactive); with NCI-H522, > 100 µM (inactive); in the experiment on SF-268, 40.2 µM (inactive); in the experiment on SK-OV-3 it was > 100 µM (inactive); in the experiment on SW-620, > 100 µM (inactive); in the experiment with UO-31 it was > 100 µM (inactive).

On to `Cc1nnc(N)nc1/C=C\c1ccc(N(C)C)cc1`, for which the GI50 was 9.79 µM (inactive) with A549; 15 µM (inactive) in the experiment with ACHN; 10.3 µM (inactive) with CCRF-CEM; > 29.7 µM (inactive) in the experiment on COLO 205; 29.6 µM (inactive) in the experiment with EKVX; 3.78 µM (inactive) in the experiment with HCC 2998. Besides, the GI50 in the experiment on HL-60 is 3.32 µM (inactive); in the experiment with HT-29 it was 8.83 µM (inactive); with K562 it was 86.9 µM (inactive); in the experiment with KM12 it was 12.3 µM (inactive); with LOX IMVI it was 4.88 µM (inactive); in the experiment on Malme-3M, 29.2 µM (inactive). The GI50 with NCI-H23 is 7.01 µM (inactive); in the experiment on NCI-H460, 9.66 µM (inactive); in the experiment with NCI-H522, 1.68 µM (inactive); with SF-268 it was > 34.2 µM (inactive); in the experiment on SK-OV-3, > 29.4 µM (inactive); in the experiment on SW-620, > 64.6 µM (inactive). Also, the GI50 with UO-31 was 3.18 µM (inactive).

Take `O=C(CC1(O)C(=O)Nc2ccc([N+](=O)[O-])cc21)c1ccc2ccccc2c1` (stereo not drawn): the GI50 in the experiment on A549, with ACHN, in the experiment on CCRF-CEM, in the experiment with COLO 205, with EKVX and in the experiment with HCC 2998 was > 100 µM (inactive) throughout. The GI50 with HL-60, in the experiment on HT-29, in the experiment on K562, with KM12, in the experiment with Malme-3M and with NCI-H23 was > 100 µM (inactive) in each case. The GI50 in the experiment with NCI-H460 was > 100 µM (inactive); in the experiment with NCI-H522 it was 65.6 µM (inactive); in the experiment on SF-268, > 100 µM (inactive); in the experiment with SK-OV-3 it was > 100 µM (inactive); in the experiment on SW-620, > 100 µM (inactive); in the experiment on UO-31, > 100 µM (inactive).

As to `COC(=O)C(=O)CC(=O)c1cccc(OC)c1`, the GI50 in the experiment on A549, with ACHN, in the experiment with CAKI-1, with CCRF-CEM, with COLO 205 and in the experiment on EKVX was > 100 µM (inactive) each time. For the same compound, the GI50 in the experiment with HCC 2998, with HL-60, in the experiment on HT-29, in the experiment on K562, in the experiment with KM12 and with LOX IMVI was > 100 µM (inactive) throughout. The GI50 in the experiment with Malme-3M, in the experiment with NCI-H23, in the experiment with NCI-H460, in the experiment with SF-268, in the experiment with SK-OV-3 and in the experiment with SW-620 was > 100 µM (inactive) in each case. Besides, the GI50 in the experiment on UO-31 is > 100 µM (inactive).
